In patent US9725416B2, “Ethynyl derivatives” (Hoffmann-La Roche Inc., priority 2014, dated 2017):

Target: T1, human mGlu4 receptor (Homo sapiens, UniProt Q14833)
T1 construct: expressed in transfected cells; host or cells: HEK-293 (monoclonal, stably transfected)
Assay: Ca2+ mobilization in vitro assay on recombinant human mGlu4 expressed in HEK293 cells (mGlu4 PAM)
Assay type: cell-based
Details: for Emax: HEK293, maximal response in % of the maximal stimulatory effect obtained with saturating concentrations of L-AP4, read-out: Eff. (%); for EC50: HEK-293 cells, Ca2+ mobilization, L-AP4 added at EC20
Method: Determination of EC50 Values Using a Ca2+ mobilization in vitro Assay on Recombinant Human mGlu4 Expressed in HEK293 cells:
A monoclonal HEK-293 cell line stably transfected with a cDNA encoding for the human mGlu4 receptor was generated; for the work with mGlu4 Positive Allosteric Modulators (PAMs), a cell line with low receptor expression levels and low constitutive receptor activity was selected to allow the differentiation of agonistic versus PAM activity. Cells were cultured according to standard protocols (Freshney, 2000) in Dulbecco's Modified Eagle Medium with high glucose supplemented with 1 mM glutamine, 10% (vol/vol) heat-inactivated bovine calf serum, Penicillin/Streptomycin, 50 μg/ml hygromycin and 15 μg/ml blasticidin (all cell culture reagents and antibiotics from Invitrogen, Basel, Switzerland).
About 24 hrs before an experiment, 5×10^4 cells/well were seeded in poly-D-lysine coated, black/clear-bottomed 96-well plates. The cells were loaded with 2.5 μM Fluo-4AM in loading buffer (1×HBSS, 20 mM HEPES) for 1 hr at 37° C. and washed five times with loading buffer. The cells were transferred into a Functional Drug Screening System 7000 (Hamamatsu, Paris, France), and 11 half logarithmic serial dilutions of test compound at 37° C. were added and the cells were incubated for 10-30 min. with on-line recording of fluorescence. Following this pre-incubation step, the agonist (2S)-2-amino-4-phosphonobutanoic acid (L-AP4) was added to the cells at a concentration corresponding to EC20 with on-line recording of fluorescence; in order to account for day-to-day variations in the responsiveness of cells, the EC20 of L-AP4 was determined immediately ahead of each experiment by recording of a full dose-response curve of L-AP4.
Responses were measured as peak increase in fluorescence minus basal (i.e. fluorescence without addition of L-AP4), normalized to the maximal stimulatory effect obtained with saturating concentrations of L-AP4. Graphs were plotted with the % maximal stimulatory using XLfit, a curve fitting program that iteratively plots the data using Levenburg Marquardt algorithm. The single site competition analysis equation used was y=A+((B−A)/(1+((x/C)D))), where y is the % maximal stimulatory effect, A is the minimum y, B is the maximum y, C is the EC50, x is the log 10 of the concentration of the competing compound and D is the slope of the curve (the Hill Coefficient). From these curves the EC50 (drug concentration at which 50% of the maximal receptor activation was achieved), the Hill coefficient as well as the maximal response in % of the maximal stimulatory effect obtained with saturating concentrations of L-AP4 were calculated (see FIG. 1).
A depression of the signal observed after addition of the EC20 concentration of L-AP4was indicative of an inhibitory activity of the test compound.

T1 sequence (Q14833 33-912): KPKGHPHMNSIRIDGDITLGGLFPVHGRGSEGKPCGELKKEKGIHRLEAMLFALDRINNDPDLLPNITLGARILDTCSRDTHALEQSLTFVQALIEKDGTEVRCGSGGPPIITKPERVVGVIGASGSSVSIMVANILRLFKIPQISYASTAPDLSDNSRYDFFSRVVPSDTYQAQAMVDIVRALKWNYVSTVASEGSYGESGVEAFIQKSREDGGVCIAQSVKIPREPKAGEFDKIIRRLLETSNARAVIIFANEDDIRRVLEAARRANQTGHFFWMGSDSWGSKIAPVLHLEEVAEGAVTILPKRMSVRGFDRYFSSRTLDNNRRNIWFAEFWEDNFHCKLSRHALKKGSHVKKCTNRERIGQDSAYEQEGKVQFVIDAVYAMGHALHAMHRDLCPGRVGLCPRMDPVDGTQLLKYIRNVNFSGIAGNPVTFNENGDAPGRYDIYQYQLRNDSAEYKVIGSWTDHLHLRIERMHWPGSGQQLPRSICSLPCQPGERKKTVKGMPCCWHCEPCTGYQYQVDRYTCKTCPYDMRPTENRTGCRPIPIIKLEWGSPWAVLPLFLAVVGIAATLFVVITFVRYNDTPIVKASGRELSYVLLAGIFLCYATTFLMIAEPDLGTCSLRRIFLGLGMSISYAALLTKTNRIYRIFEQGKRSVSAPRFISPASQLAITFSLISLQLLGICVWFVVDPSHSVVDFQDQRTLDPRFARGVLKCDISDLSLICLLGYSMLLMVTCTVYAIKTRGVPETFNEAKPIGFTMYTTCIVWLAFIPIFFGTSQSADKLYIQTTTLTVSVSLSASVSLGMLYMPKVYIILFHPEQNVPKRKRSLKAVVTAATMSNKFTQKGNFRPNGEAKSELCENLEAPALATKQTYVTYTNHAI

Emax | EC50 | SMILES
142% | 171 nM | CN1C(=O)N(c2c(F)cc(C#Cc3cccnc3)cc2Cl)C(=O)CC1(C)c1cccnc1 (racemic) [Example 33, (6RS)-3-[2-Chloro-6-fluoro-4-[2-(3-pyridyl)ethynyl]phenyl]-1,6-dimethyl-6-(3-pyridyl)hexahydropyrimidine-2,4-dione]
107% | 64 nM | CC(C)C1(C)CC(=O)N(c2c(F)cc(C#Cc3ccccc3)cc2F)C(=O)N1C (racemic) [Example 26, (6RS)-3-[2,6-Difluoro-4-(2-phenylethynyl)phenyl]-6-isopropyl-1,6-dimethyl-hexahydropyrimidine-2,4-dione]
89% | 75 nM | CN1C(=O)N(c2c(F)cc(C#Cc3ccccc3)cc2F)C(=O)C[C@@]1(C)c1cncc(F)c1 [Example 59, (6S)-3-[2,6-Difluoro-4-(2-phenylethynyl)phenyl]-6-(5-fluoro-3-pyridyl)-1,6-dimethyl-hexahydropyrimidine-2,4-dione]
116% | 165 nM | COc1cccc(C2(C)CC(=O)N(c3c(F)cc(C#Cc4cccnc4)cc3F)C(=O)N2C)c1 (racemic) [Example 42, (6RS)-3-[2,6-Difluoro-4-[2-(3-pyridyl)ethynyl]phenyl]-6-(3-methoxyphenyl)-1,6-dimethyl-hexahydropyrimidine-2,4-dione]
106% | 56 nM | CCn1cc([C@]2(C)CC(=O)N(c3c(F)cc(C#Cc4ccccc4)cc3F)C(=O)N2C)ccc1=O [Example 67, (6S)-3-[2,6-Difluoro-4-(2-phenylethynyl)phenyl]-6-(1-ethyl-6-oxo-3-pyridyl)-1,6-dimethyl-hexahydropyrimidine-2,4-dione]
88% | 57 nM | CN1C(=O)N(c2c(F)cc(C#Cc3ccccc3)cc2F)C(=O)C[C@@]1(C)c1ccc2nccn2n1 [Example 85, (6S)-3-[2,6-Difluoro-4-(2-phenylethynyl)phenyl]-6-imidazo[1,2-b]pyridazin-6-yl-1,6-dimethyl-hexahydropyrimidine-2,4-dione]
116% | 42 nM | CN1C(=O)N(c2c(F)cc(C#Cc3ccccc3)cc2F)C(=O)C[C@@]1(C)c1ccc(=O)n(C)n1 [Example 83, (6S)-3-[2,6-Difluoro-4-(2-phenylethynyl)phenyl]-1,6-dimethyl-6-(1-methyl-6-oxo-pyridazin-3-yl)hexahydropyrimidine-2,4-dione]
105% | 185 nM | CN1C(=O)N(c2c(F)cc(C#Cc3ccccc3)cc2F)C(=O)C[C@@]1(C)c1cnc(=O)[nH]c1 [Example 80, (6S)-3-[2,6-Difluoro-4-(2-phenylethynyl)phenyl]-1,6-dimethyl-6-(2-oxo-1H-pyrimidin-5-yl)hexahydropyrimidine-2,4-dione]
169% | 256 nM | CCN1C(=O)N(c2c(F)cc(C#Cc3cccnc3)cc2Cl)C(=O)CC1(C)C [Example 10, 3-[2-Chloro-6-fluoro-4-[2-(3-pyridyl)ethynyl]phenyl]-1-ethyl-6,6-dimethyl-hexahydropyrimidine-2,4-dione]
144% | 109 nM | CN1C(=O)N(c2c(F)cc(C#Cc3ccccc3)cc2F)C(=O)CC1(C)c1cccnc1 (racemic) [Example 29, (6RS)-3-[2,6-Difluoro-4-(2-phenylethynyl)phenyl]-1,6-dimethyl-6-(3-pyridyl)hexahydropyrimidine-2,4-dione]
148% | 157 nM | CC1C(=O)N(c2c(F)cc(C#Cc3ccccc3)cc2F)C(=O)N(C)C1(C)C (racemic) [Example 7, (5RS)-3-[2,6-Difluoro-4-(2-phenylethynyl)phenyl]-1,5,6,6-tetramethyl-hexahydropyrimidine-2,4-dione]
105% | 31 nM | CC12CC(=O)N(c3c(F)cc(C#Cc4ccccc4)cc3F)C(=O)N1CCN(c1ccccc1)C2=O (racemic) [Example 38, (9aRS)-7-[2,6-Difluoro-4-(2-phenylethynyl)phenyl]-9a-methyl-2-phenyl-4,9-dihydro-3H-pyrazino[1,2-c]pyrimidine-1,6,8-trione]
111% | 68 nM | CN1C(=O)N(c2c(F)cc(C#Cc3ccccc3)cc2F)C(=O)C[C@@]1(C)c1ccncc1 [Example 78, (6S)-3-[2,6-Difluoro-4-(2-phenylethynyl)phenyl]-1,6-dimethyl-6-(4-pyridyl)hexahydropyrimidine-2,4-dione]
150% | 135 nM | CN1C(=O)N(c2c(F)cc(C#Cc3cccnc3)cc2Cl)C(=O)CC1(C)c1ccccc1 (racemic) [Example 34, (6RS)-3-[2-Chloro-6-fluoro-4-[2-(3-pyridyl)ethynyl]phenyl]-1,6-dimethyl-6-phenyl-hexahydropyrimidine-2,4-dione]
131% | 163 nM | CN1C(=O)N(c2c(F)cc(C#Cc3ccccc3)cc2F)C(=O)[C@H]2CCC[C@H]21 (racemic) [Example 11, (4aRS,7aSR)-3-[2,6-Difluoro-4-(2-phenylethynyl)phenyl]-1-methyl-5,6,7,7a-tetrahydro-4aH-cyclopenta[d]pyrimidine-2,4-dione]
119% | 125 nM | CN1C(=O)N(c2c(F)cc(C#Cc3ccccc3)cc2F)C(=O)C2CCCC21C (stereo in doubt) [Example 14, (4aRS,7aRS)-3-[2,6-Difluoro-4-(2-phenylethynyl)phenyl]-1,7a-dimethyl-4a,5,6,7-tetrahydrocyclopenta[d]pyrimidine-2,4-dione]
108% | 88 nM | CN1C(=O)N(c2c(F)cc(C#Cc3ccccc3)cc2F)C(=O)CC1(C)c1ccc(Cl)nc1 (racemic) [Example 51, (6RS)-6-(6-Chloro-3-pyridyl)-3-[2,6-difluoro-4-(2-phenylethynyl)phenyl]-1,6-dimethyl-hexahydropyrimidine-2,4-dione]
119% | 124 nM | CN1C(=O)N(c2c(F)cc(C#Cc3cccnc3)cc2F)C(=O)C[C@@]1(C)c1ccnc(Cl)c1 [Example 64, (6S)-6-(2-Chloro-4-pyridyl)-3-[2,6-difluoro-4-[2-(3-pyridyl)ethynyl]phenyl]-1,6-dimethyl-hexahydropyrimidine-2,4-dione]
100% | 108 nM | CC12CC(=O)N(c3c(F)cc(C#Cc4ccccc4)cc3Cl)C(=O)N1CCNC2=O (racemic) [Example 86, (9aRS)-7-[2-Chloro-6-fluoro-4-(2-phenylethynyl)phenyl]-9a-methyl-2,3,4,9-tetrahydropyrazino[1,2-c]pyrimidine-1,6,8-trione]
106% | 73 nM | CC(C)N1C(=O)N(c2c(F)cc(C#Cc3ccccc3)cc2F)C(=O)C[C@@]1(C)c1cccnc1 [Example 70, (6S)-3-[2,6-Difluoro-4-(2-phenylethynyl)phenyl]-1-isopropyl-6-methyl-6-(3-pyridyl)hexahydropyrimidine-2,4-dione]
178% | 50 nM | CN1C(=O)N(c2c(F)cc(C#Cc3cccnc3)cc2F)C(=O)CC1(C)c1ccccc1 (stereo in doubt) [Example 19, (6S)-3-[2,6-Difluoro-4-[2-(3-pyridyl)ethynyl]phenyl]-1,6-dimethyl-6-phenyl-hexahydropyrimidine-2,4-dione]
137% | 73 nM | CCC1(CC)CC(=O)N(c2c(F)cc(C#Cc3ccccc3)cc2F)C(=O)N1C [Example 22, 3-[2,6-Difluoro-4-(2-phenylethynyl)phenyl]-6,6-diethyl-1-methyl-hexahydropyrimidine-2,4-dione]
